Assay results from US8168221B2, “Composition 064” (AstraZeneca AB, priority 2007, dated 2012).

Tests used:
[1] = Compound (I) forced degradation study, solutions exposed to light at room temperature; format: physicochemical
Procedure: (§1) The Compound (I), Compound (I) formyl hydrazide, and total impurities contents were determined using High Performance Liquid Chromatography HPLC. 10 μL sample was injected into a mobile phase comprising water/acetonitrile/formic acid in the ratios 900:100:2 (Eluent A)/400:600:2 (Eluent B), as defined by the gradient program in Table 1 below. Separation of impurities was performed using a column 15 cm long×4.6 mm internal diameter packed with Waters Symmetry C8 stationary phase having 3.5 μm particle size. […] “ND” in Tables 2 and 3 refers to “not determined”

[2] = Compound (I) forced degradation study, aqueous buffer solutions protected from light; format: physicochemical; details: for Compound (I) formyl hydrazide, % w/w (24 hours) / Compound (I) hydrazide, % w/w (24 hours) / Compound (I), % w/w (24 hours) / Compound (I), % w/w (initial) / Compound (I) formyl hydrazide, % w/w (initial): protected from light; for Compound (I), % w/w (initial): 0.5 mg/mL
Procedure: as §1

SMILES: COc1nc(C)cnc1NS(=O)(=O)c1cccnc1-c1ccc(-c2nnco2)cc1 [Compound (I), N-(3-methoxy-5-methylpyrazin-2-yl)-2-(4-[1,3,4-oxadiazol-2-yl]phenyl)pyridine-3-sulphonamide]
- Compound (I) formyl hydrazide, % w/w (24 hours) ([1]; pH 1.2, 24 hours): 16.35 % w/w
- Compound (I) hydrazide, % w/w (24 hours) ([1]; pH 1.2, 24 hours): ND/0.32 % w/w
- Compound (I), % w/w (24 hours) ([1]; pH 1.2, 24 hours): 82.33 % w/w
- Compound (I) formyl hydrazide, % w/w (initial) ([1]; pH 1.2, initial): 1.39 % w/w
- Compound (I), % w/w (initial) ([1]; pH 1.2, initial): 98.82 % w/w
- Compound (I) formyl hydrazide, % w/w (24 hours) ([1]; pH 3.0, 24 hours): 0.30 % w/w
- Compound (I), % w/w (24 hours) ([1]; pH 3.0, 24 hours): 95.76 % w/w
- Compound (I) formyl hydrazide, % w/w (initial) ([1]; pH 3.0, initial): 0.05 % w/w
- Compound (I), % w/w (initial) ([1]; pH 3.0, initial): 99.39 % w/w
- Compound (I), % w/w (24 hours) ([1]; pH 7.2, 24 hours): 97.04 % w/w
- Compound (I), % w/w (initial) ([1]; pH 7.2, initial): 98.78 % w/w
- Compound (I) formyl hydrazide, % w/w (24 hours) ([1]; pH 11.0, 24 hours): 0.15 % w/w
- Compound (I), % w/w (24 hours) ([1]; pH 11.0, 24 hours): 98.66 % w/w
- Compound (I) formyl hydrazide, % w/w (initial) ([1]; pH 11.0, initial): < 0.05 % w/w
- Compound (I), % w/w (initial) ([1]; pH 11.0, initial): 99.91 % w/w
- hydrolytic degradation (in words) ([2]; low and high pH): subject to hydrolytic degradation at low and high pH
- Compound (I) formyl hydrazide, % w/w (24 hours) ([2]; pH 1.2, 37° C.): 32.16 % w/w
- Compound (I) hydrazide, % w/w (24 hours) ([2]; pH 1.2, 37° C.): 47.34 % w/w
- Compound (I), % w/w (24 hours) ([2]; pH 1.2, 37° C.): 0.89 % w/w
- Compound (I), % w/w (initial) ([2]; pH 1.2, 37° C.): 96.69/ % w/w
- Compound (I) formyl hydrazide, % w/w (initial) ([2]; pH 1.2, 37° C.): 1.58/ % w/w
- Compound (I) formyl hydrazide, % w/w (24 hours) ([2]; pH 1.2, RT): 59.83 % w/w
- Compound (I) hydrazide, % w/w (24 hours) ([2]; pH 1.2, RT): 13.87 % w/w
- Compound (I), % w/w (24 hours) ([2]; pH 1.2, RT): 23.04 % w/w
- Compound (I), % w/w (initial) ([2]; pH 1.2, RT): 97.57/ % w/w
- Compound (I) formyl hydrazide, % w/w (initial) ([2]; pH 1.2, RT): 1.99/ % w/w
- Compound (I) formyl hydrazide, % w/w (24 hours) ([2]; pH 3.0, 37° C.): 3.09 % w/w
- Compound (I), % w/w (24 hours) ([2]; pH 3.0, 37° C.): 96.56 % w/w
- Compound (I), % w/w (initial) ([2]; pH 3.0, 37° C.): 99.43/ % w/w
- Compound (I) formyl hydrazide, % w/w (24 hours) ([2]; pH 3.0, RT): 1.66 % w/w
- Compound (I) hydrazide, % w/w (24 hours) ([2]; pH 3.0, RT): <0.05 % w/w
- Compound (I), % w/w (24 hours) ([2]; pH 3.0, RT): 84.70 % w/w
- Compound (I), % w/w (initial) ([2]; pH 3.0, RT): 99.45/ % w/w
- Compound (I) hydrazide, % w/w (24 hours) ([2]; pH 7.2, 37° C.): <0.05 % w/w
- Compound (I), % w/w (24 hours) ([2]; pH 7.2, 37° C.): 99.17 % w/w
- Compound (I), % w/w (initial) ([2]; pH 7.2, 37° C.): 98.73/ % w/w
- Compound (I) hydrazide, % w/w (24 hours) ([2]; pH 7.2, RT): <0.05 % w/w
- Compound (I), % w/w (24 hours) ([2]; pH 7.2, RT): 99.45 % w/w
- Compound (I), % w/w (initial) ([2]; pH 7.2, RT): 99.14/ % w/w
- Compound (I) formyl hydrazide, % w/w (24 hours) ([2]; pH 11.0, 37° C.): 4.16 % w/w
- Compound (I) hydrazide, % w/w (24 hours) ([2]; pH 11.0, 37° C.): <0.05 % w/w
- Compound (I), % w/w (24 hours) ([2]; pH 11.0, 37° C.): 94.50 % w/w
- Compound (I), % w/w (initial) ([2]; pH 11.0, 37° C.): 99.17/ % w/w
- Compound (I) formyl hydrazide, % w/w (24 hours) ([2]; pH 11.0, RT): 1.35 % w/w
- Compound (I), % w/w (24 hours) ([2]; pH 11.0, RT): 94.21 % w/w
- Compound (I), % w/w (initial) ([2]; pH 11.0, RT): 98.68/ % w/w
- Compound (I) formyl hydrazide, % w/w (initial) ([2]; pH 11.0, RT): 0.07/ % w/w
